Several values for one entry are separate records, joined by “and”; a condition that tells them apart may be missing. Equal entries are not always repeated.
Assays:
DRD2 (D2 long receptor) = DRD2 (D2 long receptor) (Homo sapiens, UniProt P14416); assay: Gαi/o-mediated cAMP inhibition (GloSensor split-luciferase cAMP reporter), HEK293T; type: cell-based; settings: DRD2;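 note: compounds applied 15 min at room temperature, then luciferin plus 400 nM isoproterenol to raise cAMP through endogenous β2-adrenergic receptors, luminescence read 15 min later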
[1] = system: serotonin receptor (subtype not given; reference agonist serotonin); assay: β-arrestin2 recruitment (Tango), agonist activity, source data Fig_S10l; type: cell-based, human; settings: drug alone
DRD5 = DRD5 (Homo sapiens, UniProt P21918); assay: β-arrestin2 recruitment (Tango); type: cell-based; settings: Fig_S10e, single replicates
5HT6 = molecular target: T1, 5HT6 (Homo sapiens, UniProt P50406); assay: β-arrestin2 recruitment (Tango); type: cell-based; settings: Fig_S10p, agonist mode
T1 construct: expressed in transfected cells; host or cells: HTLA cells expressing TEV-fused β-arrestin2

DRD4 (D4.4 variant) = molecular target: T2, DRD4 (D4.4 variant) (Homo sapiens, UniProt P21917); assay: Gαi/o-mediated cAMP inhibition (GloSensor); type: cell-based; settings: DRD4; agonist, cAMP inhibition; read-out: EC50 ± SEM
T2 sequence (P21917 1-419): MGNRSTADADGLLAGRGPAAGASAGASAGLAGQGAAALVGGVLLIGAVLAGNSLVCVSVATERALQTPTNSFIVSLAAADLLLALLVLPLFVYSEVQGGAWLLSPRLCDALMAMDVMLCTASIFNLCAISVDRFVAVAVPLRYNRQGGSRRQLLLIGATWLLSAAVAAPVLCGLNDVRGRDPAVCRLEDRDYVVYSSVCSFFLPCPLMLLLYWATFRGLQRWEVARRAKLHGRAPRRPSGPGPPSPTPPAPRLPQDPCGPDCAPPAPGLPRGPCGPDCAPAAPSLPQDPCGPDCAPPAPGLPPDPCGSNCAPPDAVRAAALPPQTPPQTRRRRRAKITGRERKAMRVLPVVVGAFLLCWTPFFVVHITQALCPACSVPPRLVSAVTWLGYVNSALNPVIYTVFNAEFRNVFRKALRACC

DRD5, sequence (P21918 whole entry): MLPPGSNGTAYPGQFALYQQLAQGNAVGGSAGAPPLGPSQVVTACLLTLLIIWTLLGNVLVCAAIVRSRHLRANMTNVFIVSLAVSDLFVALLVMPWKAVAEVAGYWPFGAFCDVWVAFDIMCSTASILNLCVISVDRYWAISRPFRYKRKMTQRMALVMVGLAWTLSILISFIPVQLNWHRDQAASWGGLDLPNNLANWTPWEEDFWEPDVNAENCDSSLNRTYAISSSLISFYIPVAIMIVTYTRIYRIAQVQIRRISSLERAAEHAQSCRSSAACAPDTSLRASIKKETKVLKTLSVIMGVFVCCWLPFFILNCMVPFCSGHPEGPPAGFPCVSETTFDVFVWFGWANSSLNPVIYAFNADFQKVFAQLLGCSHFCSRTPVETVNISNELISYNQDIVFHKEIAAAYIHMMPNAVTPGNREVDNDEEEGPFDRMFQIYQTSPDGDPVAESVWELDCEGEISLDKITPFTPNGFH
T1 sequence (P50406 whole entry, the tested form may be a part): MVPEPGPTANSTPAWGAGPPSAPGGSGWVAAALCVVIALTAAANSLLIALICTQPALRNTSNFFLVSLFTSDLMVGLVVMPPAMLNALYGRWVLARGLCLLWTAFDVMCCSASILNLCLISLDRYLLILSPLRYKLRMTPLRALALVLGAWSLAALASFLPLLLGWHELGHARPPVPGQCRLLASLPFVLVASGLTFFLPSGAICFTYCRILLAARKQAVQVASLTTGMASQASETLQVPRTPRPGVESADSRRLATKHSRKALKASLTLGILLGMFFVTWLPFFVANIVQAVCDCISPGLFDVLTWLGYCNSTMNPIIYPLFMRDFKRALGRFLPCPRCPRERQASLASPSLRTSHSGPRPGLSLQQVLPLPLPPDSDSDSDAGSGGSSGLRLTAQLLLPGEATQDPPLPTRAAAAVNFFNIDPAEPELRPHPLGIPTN
DRD2 (D2 long receptor), sequence (P14416 whole entry): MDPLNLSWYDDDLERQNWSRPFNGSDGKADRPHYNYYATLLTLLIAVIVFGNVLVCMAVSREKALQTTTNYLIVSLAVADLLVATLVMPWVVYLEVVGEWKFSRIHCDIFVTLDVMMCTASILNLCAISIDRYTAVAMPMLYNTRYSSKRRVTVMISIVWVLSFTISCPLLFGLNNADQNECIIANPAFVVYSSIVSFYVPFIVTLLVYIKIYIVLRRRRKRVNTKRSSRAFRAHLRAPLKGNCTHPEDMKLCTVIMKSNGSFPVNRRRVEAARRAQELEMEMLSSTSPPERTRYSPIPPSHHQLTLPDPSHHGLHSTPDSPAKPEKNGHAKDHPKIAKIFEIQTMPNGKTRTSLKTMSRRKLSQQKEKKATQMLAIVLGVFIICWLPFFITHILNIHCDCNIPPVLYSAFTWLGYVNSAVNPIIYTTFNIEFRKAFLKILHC

In the case of `CCOc1cccc2cc([C@@H](C)NCC3(O)CCCCC3)oc12` [O4RE6], the EC50 (DRD2 (D2 long receptor); agonist, Gαi/o-mediated cAMP inhibition, read-out: EC50 ± SEM) is reported as 0.45 ± 0.05 nM, the “G protein agonist activity” value (DRD2 (D2 long receptor); cAMP inhibition) is reported as “full agonist” and the Emax (DRD2 (D2 long receptor); HEK-293T, read-out: Emax relative to quinpirole response, cAMP inhibition) is reported as 94.5%. For the same molecule, the “response, Fig_S10l, replicate values” ([1]; Log[Drug] -6.52) was -3.85, the “response, Fig_S10l, replicate values” ([1]; Log[Drug] -7) was -18.1455 and -1.053 and 5.44 and -6.097 and -0.7764 and -1.627 and 21.5386 and -8.446 and -23.0116 and the “response, Fig_S10l, replicate values” ([1]; Log[Drug] -7.52) was 10.4314 and -7.0535 and -12.5511 and -5.4086 and -2.507 and -5.8801 and -14.9973 and 5.012 and -22.748. For the same molecule, the “response, Fig_S10l, replicate values” ([1]; Log[Drug] -8) was -3.494 and -0.9897 and -1.101 and -6.133 and 9.37 and -6.103 and -6.764 and -19.0522 and -18.9699, the “response, Fig_S10l, replicate values” ([1]; Log[Drug] -8.52) was -14.6079 and -9.137 and 0.1161 and -2.858 and 0.4788 and -6.718 and 5.642 and 9.781 and -19.7014 and the “response, Fig_S10l, replicate values” ([1]; Log[Drug] -9) was -7.429 and -0.8033 and 2.514 and -1.371 and -2.511 and 6.172 and -12.5406 and 13.3677 and 9.079. For the same molecule, the “response, Fig_S10l, replicate values” ([1]; Log[Drug] -9.52) was -7.024 and -4.6241 and 4.382 and 5.183 and -6.777 and -3.91 and -13.0464 and 1.094 and -1.351, the “response, Fig_S10l, replicate values” ([1]; Log[Drug] -10) was -1.517 and -3.218 and -6.7099 and 1.544 and 10.647 and -1.892 and 3.1372 and 12.1979 and 15.1176 and the “response, Fig_S10l, replicate values” ([1]; Log[Drug] -10.52) was 7.131 and -7.271 and -11.3727 and 2.195 and -7.95 and -8.5307 and 3.862 and 0.6607 and 18.5102. The “response, Fig_S10l, replicate values” ([1]; Log[Drug] -11) was 7.402 and 9.101 and -6.117 and -2.283 and 7.1162 and 16.1339 and -5.988 and 21.1185 and -1.691, the “response, Fig_S10l, replicate values” ([1]; Log[Drug] -11.52) was 20.0426 and 4.341 and -34.8779 and 9.958 and -2.256 and -5.643 and 0.02142 and 3.842 and -14.699 and the “response, Fig_S10l, replicate values” ([1]; Log[Drug] -12) was 1.452 and 8.392 and -9.8386 and -3.912 and 6.115 and -2.202 and -0.8107 and 10.4431 and -9.6291. The “β-arrestin2 recruitment response, agonist mode (normalized)” value (DRD5; Log[Drug] -6.52) was 3.307, the “β-arrestin2 recruitment response, agonist mode (normalized)” value (DRD5; Log[Drug] -7) was 3.556 and 3.7037 and 0.3329 and 4.539 and 1.619 and 0.7476 and 0.7305 and 1.517 and 0.06412 and the “β-arrestin2 recruitment response, agonist mode (normalized)” value (DRD5; Log[Drug] -7.52) was 3.831 and -0.7608 and 1.183 and 2.699 and 1.3394 and 0.2373 and -0.5855 and 0.1756 and 0.6817. The “β-arrestin2 recruitment response, agonist mode (normalized)” value (DRD5; Log[Drug] -8) was -0.354 and 4.126 and 1.796 and 1.252 and 1.785 and 1.286 and -0.552 and 0.7932 and 1.175, the “β-arrestin2 recruitment response, agonist mode (normalized)” value (DRD5; Log[Drug] -8.52) was 4.945 and 4.734 and 2.002 and 0.8283 and 1.858 and 0.3616 and -0.1241 and 0.7932 and 0.1701 and the “β-arrestin2 recruitment response, agonist mode (normalized)” value (DRD5; Log[Drug] -9) was -0.5336 and 1.162 and 2.8425 and 2.532 and 0.2334 and 1.094 and -1.004 and 0.5702 and 1.069. The “β-arrestin2 recruitment response, agonist mode (normalized)” value (DRD5; Log[Drug] -9.52) was 1.189 and -0.1004 and 3.714 and 0.519 and 0.6511 and 2.841 and 3.8684 and 0.6677 and 1.209, the “β-arrestin2 recruitment response, agonist mode (normalized)” value (DRD5; Log[Drug] -10) was 1.189 and -0.7027 and -2.2032 and 1.378 and 0.875 and 0.4502 and -0.1213 and -0.3875 and 2.24 and the “β-arrestin2 recruitment response, agonist mode (normalized)” value (DRD5; Log[Drug] -10.52) was 0.7608 and -0.5125 and 1.416 and 1.597 and 1.308 and 1.974 and 3.531 and 1.161 and 0.5451. The “β-arrestin2 recruitment response, agonist mode (normalized)” value (DRD5; Log[Drug] -11) was -0.3117 and 1.606 and -1.358 and 0.3916 and 1.977 and 2.8 and -0.009758 and 3.703 and 3.711, the “β-arrestin2 recruitment response, agonist mode (normalized)” value (DRD5; Log[Drug] -11.52) was -1.77 and 3.926 and 0.7503 and 1.5356 and 0.746 and 0.6788 and -0.4001 and 8.516 and 5.095 and the “β-arrestin2 recruitment response, agonist mode (normalized)” value (DRD5; Log[Drug] -12) was -0.9088 and 2.256 and -1.342 and 2.237 and 0.341 and 1.2057 and -1.023 and 0.1729 and 0.8517. For the same molecule, the “β-arrestin2 recruitment response, replicate points of concentration-response curve” value (5HT6; Log[Drug] -6) was 0.6179, the “β-arrestin2 recruitment response, replicate points of concentration-response curve” value (5HT6; Log[Drug] -6.52) was 2.255 and 6.005 and -0.9593 and 0.5245 and -8.852 and -1.095 and 3.803 and 14.7296 and 1.5314 and the “β-arrestin2 recruitment response, replicate points of concentration-response curve” value (5HT6; Log[Drug] -7) was 2.737 and -0.8021 and 0.3035 and -9.828 and -11.4107 and -3.313 and -1.206 and -3.514 and 45.5574. The “β-arrestin2 recruitment response, replicate points of concentration-response curve” value (5HT6; Log[Drug] -7.52) was 9.506 and 14.1402 and 17.6522 and -10.6377 and -5.208 and -2.549 and -1.295 and 2.071 and -1.605, the “β-arrestin2 recruitment response, replicate points of concentration-response curve” value (5HT6; Log[Drug] -8) was -0.645 and 1.165 and 0.2927 and -3.147 and 13.2695 and -12.1837 and -4.853 and 0.614 and -2.656 and the “β-arrestin2 recruitment response, replicate points of concentration-response curve” value (5HT6; Log[Drug] -8.52) was -0.1626 and 4.9103 and -0.3035 and -9.285 and -10.3985 and -13.5456 and -5.689 and -5.904 and -4.713. For the same molecule, the “β-arrestin2 recruitment response, replicate points of concentration-response curve” value (5HT6; Log[Drug] -9) was 5.962 and 3.36 and 0.775 and -2.264 and 6.672 and -11.4475 and -4.468 and 0.05179 and -2.649, the “β-arrestin2 recruitment response, replicate points of concentration-response curve” value (5HT6; Log[Drug] -9.52) was 0.7804 and -0.09756 and 1.653 and -9.57 and -13.2511 and -10.2512 and -0.9174 and -5.319 and -2.049 and the “β-arrestin2 recruitment response, replicate points of concentration-response curve” value (5HT6; Log[Drug] -10) was -1.848 and 4.038 and 4.894 and -4.813 and -13.9689 and -2.9539 and 13.3388 and -5.371 and 2.353. For the same molecule, the “β-arrestin2 recruitment response, replicate points of concentration-response curve” value (5HT6; Log[Drug] -10.52) was 1.577 and 1.859 and -0.3143 and -10.7113 and -10.242 and -8.8801 and -0.04439 and -4.439 and 2.981, the “β-arrestin2 recruitment response, replicate points of concentration-response curve” value (5HT6; Log[Drug] -11) was -1.149 and 2.054 and 0.1355 and -7.003 and -10.3432 and 9.598 and -3.27 and -3.4993 and -5.608 and the “β-arrestin2 recruitment response, replicate points of concentration-response curve” value (5HT6; Log[Drug] -11.52) was -1.182 and 12.7148 and 3.068 and 1.2699 and -8.8985 and -8.135 and 6.251 and -5.941 and -5.608. The EC50 (DRD4 (D4.4 variant)) was > 10000 nM.

— publication PMC7044277 (Nature Communications, 2020)
